Data reported in patent publication US7265129B2, “Anti-infective biaryl compounds” (priority 2002, dated 2007).

Assays:
[1] = tested on: S. aureus ATCC 33591; experiment: MIC, NCCLS broth microdilution, S. aureus ATCC 33591; type: cell-based, Staphylococcus aureus
Summary of the method: (§1)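 MIC determined in microtiter plates by NCCLS broth microdilution following documents M7-A4, M11-A4 and M27-T. Antifungal testing used the method recommended in the Manual of Clinical Microbiology (1995).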

[2] = tested on: S. aureus ATCC 13709; experiment: MIC, NCCLS broth microdilution, S. aureus MSSA; type: cell-based, Staphylococcus aureus; conditions: S. aureus ATCC 13709, methicillin sensitive strain (MSSA)
Summary of the method: as §1

[3] = tested on: E. faecalis ATCC 29212; experiment: MIC, NCCLS broth microdilution, E. faecalis; type: cell-based, Enterococcus faecalis
Summary of the method: as §1

[4] = tested on: S. epidermidis ATCC 12228; experiment: MIC, S. epidermidis; type: cell-based, Staphylococcus epidermidis; conditions: Table C
Experimental: (§2) Compounds according to this invention were screened for their in vitro activities against selected species of bacteria and fungi. The minimal inhibition concentration (MIC) of these compounds was determined using the National Committee for Clinical Laboratory Standards (NCCLS) broth microdilution assay in microtiter plates, as set forth in: (1) the guidelines of the National Committee for Clinical Laboratory Standards (NCCLS) Document M7-A4 (NCCLS, 1997); (2) the guidelines of the National Committee for Clinical Laboratory Standards (NCCLS) Document M11-A4 (NCCLS, 1997); and (3) the guidelines and reference method of the National Committee for Clinical Laboratory Standards (NCCLS) Document M27-T (NCCLS, 1995). For antifungal assays, the method recommended in Murray, P R., 1995 Manual of Clinical Microbiology (ASM Press, Washington, D.C.), was employed.
(§3) Additionally, some compounds were screened against Enterococcus faccium (ATCC 51559, a vancomycin resistant strain (VRE)), Staphylococcus epidermidis (ATCC 12228), Streptococcus pneumoniae (ATCC 51422, a penicillin resistant strain (PRSP)), and/or Streptococcus pyogenes (ATCC 49399).

[5] = tested on: S. pneumoniae ATCC 51422; experiment: MIC, S. pneumoniae PRSP; type: cell-based, Streptococcus pneumoniae; conditions: Table C; S. pneumoniae ATCC 51422, penicillin resistant strain (PRSP)
Experimental: as §2, §3

[6] = MIC, Table C (organism not given); type: cell-based
Experimental: as §2, §3

[7] = tested on: B. cereus ATCC 11778; experiment: MIC, NCCLS broth microdilution, B. cereus; type: cell-based, Bacillus cereus
Summary of the method: as §1

[8] = tested on: E. faecium ATCC 51559; experiment: MIC, E. faecium VRE; type: cell-based, Enterococcus faccium; conditions: Table C; E. faecium ATCC 51559, vancomycin resistant strain (VRE)
Experimental: as §2, §3

[9] = tested on: S. aureus ATCC 27660; experiment: MIC, NCCLS broth microdilution, S. aureus MRSA; type: cell-based, Staphylococcus aureus; conditions: S. aureus ATCC 27660, methicillin resistant strain (MRSA)
Summary of the method: as §1

[10] = tested on: S. pneumoniae ATCC 49619; experiment: MIC, NCCLS broth microdilution, S. pneumoniae; type: cell-based, Streptococcus pneumoniae
Summary of the method: as §1

[11] = tested on: C. albicans ATCC 38247; experiment: MIC, antifungal assay, C. albicans; type: cell-based, Candida albicans
Summary of the method: as §1

[12] = tested on: S. pyogenes ATCC 4399; experiment: MIC, S. pyogenes; type: cell-based, Streptococcus pyogenes; conditions: Table C
Experimental: as §2, §3

Cn1cc(NC(=O)c2cc(NC(=O)c3ccc(Cl)cc3F)cn2CCCN2CCC(F)(F)CC2)cc1-c1nc2cccnc2[nH]1 [Compound A-43]
Minimum Inhibitory Concentration (MIC), organism F [1]: ++ (4 < MIC < 12 μg/mL) | Minimum Inhibitory Concentration (MIC), organism D [2]: ++ (4 < MIC < 12 μg/mL) | Minimum Inhibitory Concentration (MIC), organism C [3]: ++ (4 < MIC < 12 μg/mL) | Minimum Inhibitory Concentration (MIC), organism B [4]: +++ (MIC ≦ 4 pg/mL) | Minimum Inhibitory Concentration (MIC), organism C [5]: ++ (4 < MIC < 12 μg/mL) | Minimum Inhibitory Concentration (MIC), organism E [6]: +++ (MIC ≦ 4 pg/mL) | Minimum Inhibitory Concentration (MIC), organism A [7]: +++ (MIC ≦ 4 μg/mL) | Minimum Inhibitory Concentration (MIC), organism A [8]: +++ (MIC ≦ 4 pg/mL) | Minimum Inhibitory Concentration (MIC), organism E [9]: +++ (MIC ≦ 4 μg/mL) | Minimum Inhibitory Concentration (MIC), organism G [10]: +++ (MIC ≦ 4 μg/mL) | Minimum Inhibitory Concentration (MIC), organism B [11]: >32 µg/mL | Minimum Inhibitory Concentration (MIC), organism D [12]: ++ (4 < MIC < 12 μg/mL)

Cn1cc(NC(=O)c2cc(NC(=O)c3sccc3Cl)cn2CCCN2CCCCC2)cc1-c1nc2ccccc2[nH]1 [Compound A-49]
Minimum Inhibitory Concentration (MIC), organism F [1]: +++ (MIC ≦ 4 μg/mL) | Minimum Inhibitory Concentration (MIC), organism D [2]: +++ (MIC ≦ 4 μg/mL) | Minimum Inhibitory Concentration (MIC), organism C [3]: +++ (MIC ≦ 4 μg/mL) | Minimum Inhibitory Concentration (MIC), organism B [4]: +++ (MIC ≦ 4 pg/mL) | Minimum Inhibitory Concentration (MIC), organism E [6]: +++ (MIC ≦ 4 pg/mL) | Minimum Inhibitory Concentration (MIC), organism A [7]: +++ (MIC ≦ 4 μg/mL) | Minimum Inhibitory Concentration (MIC), organism A [8]: +++ (MIC ≦ 4 pg/mL) | Minimum Inhibitory Concentration (MIC), organism E [9]: +++ (MIC ≦ 4 μg/mL) | Minimum Inhibitory Concentration (MIC), organism G [10]: +++ (MIC ≦ 4 μg/mL) | Minimum Inhibitory Concentration (MIC), organism B [11]: + (12 ≦ MIC ≦ 32 μg/mL)

Cn1cc(NC(=O)c2cc(NC(=O)c3sccc3Cl)cn2CCCN2CCSCC2)cc1-c1nc2ccccc2[nH]1 [Compound A-51]
Minimum Inhibitory Concentration (MIC), organism F [1]: +++ (MIC ≦ 4 μg/mL) | Minimum Inhibitory Concentration (MIC), organism D [2]: +++ (MIC ≦ 4 μg/mL) | Minimum Inhibitory Concentration (MIC), organism C [3]: +++ (MIC ≦ 4 μg/mL) | Minimum Inhibitory Concentration (MIC), organism B [4]: +++ (MIC ≦ 4 pg/mL) | Minimum Inhibitory Concentration (MIC), organism E [6]: +++ (MIC ≦ 4 pg/mL) | Minimum Inhibitory Concentration (MIC), organism A [7]: +++ (MIC ≦ 4 μg/mL) | Minimum Inhibitory Concentration (MIC), organism A [8]: +++ (MIC ≦ 4 pg/mL) | Minimum Inhibitory Concentration (MIC), organism E [9]: +++ (MIC ≦ 4 μg/mL) | Minimum Inhibitory Concentration (MIC), organism G [10]: +++ (MIC ≦ 4 μg/mL) | Minimum Inhibitory Concentration (MIC), organism B [11]: >32 µg/mL
